Read-outs that look alike come from different tables or passages of the source. One block for each molecule: values may come before it.
Columns and labels:
[1] = Oral pharmacokinetic study of 2HF in BALB/c mouse blood (HPLC-MS/MS, non-compartmental analysis); format: in vivo; settings: BALB/c mice, single oral dose 10 mg/kg, whole blood
Procedure: BALB/c mice, with six mice per group, received a single dose of 10 mg/kg 2HF that was solubilized in DMSO (2%) and suspended in Ora-plus® (Perrigo, Minneapolis, MN, United States). ORA-Plus is an aqueous-based vehicle consisting of suspending agents that have a high degree of colloidal activity, facilitating the process involved in the extemporaneous compounding of oral suspensions. Ora-Plus contains purified water, microcrystalline cellulose, sodium carboxymethylcellulose, xanthan gum, and carrageenan as suspending agents; calcium sulfate, sodium phosphate, and citric acid as buffering agents; simethicone as an antifoaming agent; and potassium sorbate and methylparaben as preservatives, as described in the datasheet. The doses were administered orally using a gavage needle.
Mouse blood (300 µL) was collected via the orbital plexus, one mouse per time, with six replicates (6 mice per time interval). For anesthesia, an ophthalmic solution of tetracaine hydrochloride (1%) and phenylephrine hydrochloride (0,1%) was used, and one drop was administered in the chosen orbital 5 min before collection. The collection was performed with […] Pasteur pipettes that were previously autoclaved, and blood was transferred to 1.5 mL microtubes that were also heparinized. The time intervals determined were 2.5, 5, 7.5, 10, 15, 30, 45, 60, 90, 120, and 240 min after administration of the compound. After collecting all samples, 2HF was extracted as described above.
The pharmacokinetic parameters were obtained by non-compartmental analysis (NCA) using the Phoenix WinNonlin® 8.1 program (CERTARA). The maximum blood peak concentration (Cmax) and time to peak concentration (Tmax) were obtained directly from the blood concentration-time profiles. The area under the concentration-time curve from time zero to time t (AUC0–t) was obtained using the trapezoidal method. The area under the total blood concentration-time curve from time zero to infinity (AUC0–∞) was calculated using Eq. 4 as follows: AUC0–∞=AUC0–t+Clast÷kel (4) where Clast is the concentration observed at the last time, and kel is the apparent elimination rate constant obtained from the terminal slope of the blood concentration-time curve after logarithmic transformation of the blood concentrations and application of linear regression.
The blood elimination half-life (t1/2) was calculated using Eq. 5 as follows: t1/2=ln2÷kel (5)
Apparent oral clearance (CL/F) and apparent volume of distribution (Vd/F) parameters were obtained from the blood concentrations and expressed normalized to bioavailability (F) because only oral data are available.

tumor growth = system: tumor growth; parameters: method as in earlier work; settings: single oral doses of 100 mg/kg/day or 25, 50 and 100 mg/kg every other day, ref Yue et al., 2020, Nagaprashantha et al., 2011, Singhal et al., 2018a, 2018b; cited from earlier work
[2] = Stability of 2HF in mouse blood (short-term, postpreparative, freeze-thaw, long-term); format: in vitro ADME, BALB/c mouse; settings: for Deviation, short term stability / Mean concentration, short term stability: +22.0 °C; for Deviation, short term stability / Mean concentration, short term stability / Deviation, freeze-thaw stability / Mean concentration, freeze-thaw stability / Deviation, long-term stability / Mean concentration, long-term stability / Deviation, postpreparative stability / Mean concentration, postpreparative stability: n = 8; for Deviation, freeze-thaw stability / Mean concentration, freeze-thaw stability / Deviation, long-term stability / Mean concentration, long-term stability: −70.0 °C; for Deviation, freeze-thaw stability / Mean concentration, freeze-thaw stability: 6 cycles; for Deviation, postpreparative stability / Mean concentration, postpreparative stability: processed mouse blood sample, +10.0 °C
Procedure: Stability studies were initiated and completed before analyzing the studied samples. The stability in the biological matrix was evaluated through freezing and thawing cycles, short-term and long-term stability, and postpreparative. All tests were performed with eight replicates for each sample concentration level. To carry out the stability tests, an initial quantification test (TQI) was performed in accordance with local regulatory norms that aim to guarantee good practices through quality standards. In this test, samples of LQC […] and HQC […] were analyzed, in which the concentration was determined by utilizing a freshly prepared calibration curve. The number of replicates that were analyzed in each control was the same as that used in the stability tests. Freeze–thaw cycle temperatures are presented in Supplementary Table S4.
The stability of 2HF in BALB/c mouse blood was evaluated using short-term tests at 22 °C, postprocessing stability at +10 °C, stability in freeze–thaw cycles (n = 06 cycles) and long-term stability with the samples stored at −70 °C. In these assays, the quality controls of low and high concentrations, LQC: 3.00 ng/mL and HQC: 200.00 ng/mL, were used.

Leishmania amazonensis [3] = system: Leishmania amazonensis; parameters: method as in Gervazoni et al., 2018; settings: in vitro; ref Gervazoni et al., 2018; cited from earlier work
Leishmania amazonensis [4] = settings: ref Gervazoni et al., cited from earlier work; for In vivo effects in cutaneous leishmaniasis model: single oral dose/day, 2020
[5] = rat plasma, cited from earlier work
[6] = parameters: method as in Teng et al., 2012; settings: ref Teng et al., 2012; cited from earlier work
[7] = ref Gervazoni et al., 2020; cited from earlier work
[8] = orally administered to rats; ref Yang et al., 2019a; cited from earlier work
[9] = parameters: method as in Yang et al., 2019b; settings: rats, 10 mg/kg oral dose; ref Yang et al., 2019b; cited from earlier work
[10] = mouse blood, HQC nominal 200.00 ng/mL
[11] = mouse blood, LQC nominal 3.00 ng/mL
[12] = sensitive and cutaneous murine model, 2018
[13] = oral single dose 100 mg/kg, ref Zhao et al., 2020

- AUC0-inf [1]: 5,524.54 min x ng/mL
- AUC % extrap [1]: 7.30%
- Cl/F, total blood clearance [1]: 18.10 mL/min
- Tmax, time to reach Cmax [1]: 5 min
- AUC0-t ([1]; trapezoidal method): 5,120.98 min x ng/mL
- k el ([1]; mouse, NCA, read-out: Kel, elimination rate constant (converted)): 0.000118 s⁻¹
- half-life ([1]; mouse, NCA, read-out: T1/2, elimination half-time): 1.63 h
- Cmax ([1]; mouse, read-out: Cmax, maximum concentration): 186 ng/mL
- Vd/F ([1]; mouse, read-out: Vd/F, volume of distribution): 2.55 L
- Deviations in stability tests ([2]; biological matrix, freezing and thawing, short duration, postprocessing and long duration): less than 15%
- Deviation, short term stability [2, 10]: 7.53%
- Mean concentration, short term stability [2, 10]: 215.06 ng/mL
- Deviation, short term stability [2, 11]: 4.59%
- Mean concentration, short term stability [2, 11]: 3.14 ng/mL
- Degradation in the biological matrix ([2]; mouse blood, all stability tests performed): no significant degradation
- Deviation, freeze-thaw stability [2, 10]: 4.68%
- Mean concentration, freeze-thaw stability [2, 10]: 209.37 ng/mL
- Deviation, freeze-thaw stability [2, 11]: 1.61%
- Mean concentration, freeze-thaw stability [2, 11]: 3.05 ng/mL
- Deviation, long-term stability [2, 10]: 5.42%
- Mean concentration, long-term stability [2, 10]: 210.83 ng/mL
- Deviation, long-term stability [2, 11]: −1.33%
- Mean concentration, long-term stability [2, 11]: 2.96 ng/mL
- Deviation, postpreparative stability ([2]; HQC nominal 200.00 ng/mL): 11.08%
- Mean concentration, postpreparative stability ([2]; HQC nominal 200.00 ng/mL): 222.16 ng/mL
- Deviation, postpreparative stability ([2]; LQC nominal 3.00 ng/mL): 10.11%
- Mean concentration, postpreparative stability ([2]; LQC nominal 3.00 ng/mL): 3.30 ng/mL
SMILES: O=C1CC(c2ccccc2O)Oc2ccccc21 (centres unmarked) [2HF, 2′-Hydroxyflavanone]
- Tumor growth (tumor growth): inhibited different types of tumor growth
- Inhibition of promastigote and amastigote forms (Leishmania amazonensis [3]): inhibit both the promastigote and amastigote forms
- In vivo activity in experimental model of cutaneous leishmaniasis (Leishmania amazonensis [4]; daily doses of 50 mg/kg for 35 days, 2018): significant effect
- Lesion size (Leishmania amazonensis [4]; [12]): decrease the lesion size
- Parasitic load (Leishmania amazonensis [4]; [12]): almost cease the parasitic load

SMILES: COc1cc(O)cc(O)c1C(=O)/C=C/c1ccccc1 [Cardamonin]
- Tmax ([5]; oral single dose 5 mg/kg, ref Jaiswal et al., 2017): 0.50 h

SMILES: O=C(CCc1ccc(O)cc1)c1c(O)cc(O)cc1O [Phloretin]
- T1/2 [5, 13]: 2.83 h
- Tmax [5, 13]: 1.25 h

SMILES: O=c1cc(-c2ccc(O)cc2)oc2cc(O)cc(O)c12 [apigenin]
- In vivo effects in cutaneous leishmaniasis model (Leishmania amazonensis [4]): promising in vivo effects
- Cmax [6]: 42 ng/mL
- T1/2 [6]: 2.11 h
- Tmax [6]: 0.50 h
- T1/2 [7]: less than 192 min

SMILES: O=C1c2c(O)cc(O)cc2O[C@H](c2cc(O)c(O)c(O)c2)[C@H]1O [dihydromyricetin]
- T1/2 [8]: 3.04 h
- Tmax [8]: 0.57 h

SMILES: O=C1c2c(O)cc(O)cc2O[C@H](c2ccc(O)c(O)c2)[C@H]1O [dihydroquercetin]
- T1/2 [8]: 2.32 h
- Tmax [8]: 0.28 h

SMILES: COc1cc(O)c(C(=O)/C=C/c2ccccc2)c(OC)c1 [flavokavain B]
- Cmax [9]: 265.2 ng/mL
- T1/2 [9]: 2.76 h
- Time of Cmax [9]: 1 h

SMILES: O=c1c(O)c(-c2cc(O)c(O)c(O)c2)oc2cc(O)cc(O)c12 [myricetin]
- T1/2 [8]: 2.46 h
- Tmax [8]: 0.22 h

SMILES: O=c1c(O)c(-c2ccc(O)c(O)c2)oc2cc(O)cc(O)c12 [quercetin]
- T1/2 [8]: 3.00 h
- Tmax [8]: 0.25 h
- In vivo effects in cutaneous leishmaniasis model (Leishmania amazonensis [4]): promising in vivo effects
- T1/2 [7]: less than 192 min
